In ChEMBL document CHEMBL3994582, “A2B adenosine receptor antagonists: Design, synthesis and biological evaluation of novel xanthine derivatives” (Eur J Med Chem, 2017) one finds Ki, inhibition and Drug metabolism data, which are given here for seven compounds.

In general, Ki refers to a measure of affinity in units of concentration, obtained from inhibition or displacement. One may read the inhibition as how much of the control response was suppressed. A lower inhibition goes with a response near the control.

Sequence of Adenosine receptor A2a (P29274 whole entry): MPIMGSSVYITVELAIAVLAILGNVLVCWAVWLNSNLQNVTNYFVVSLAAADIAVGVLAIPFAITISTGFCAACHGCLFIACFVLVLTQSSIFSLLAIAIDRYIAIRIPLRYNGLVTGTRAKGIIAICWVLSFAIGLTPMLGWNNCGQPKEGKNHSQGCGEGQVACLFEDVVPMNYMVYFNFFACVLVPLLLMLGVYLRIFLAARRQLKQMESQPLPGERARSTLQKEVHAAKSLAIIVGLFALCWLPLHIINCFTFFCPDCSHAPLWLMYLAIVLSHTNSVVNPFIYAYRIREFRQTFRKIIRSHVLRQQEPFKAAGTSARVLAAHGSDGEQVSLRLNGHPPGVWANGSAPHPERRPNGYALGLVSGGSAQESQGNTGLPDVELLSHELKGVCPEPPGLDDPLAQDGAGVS

One data set addresses T1, Adenosine receptor A2b (Homo sapiens, UniProt P29275).
T1 sequence (P29275 whole entry): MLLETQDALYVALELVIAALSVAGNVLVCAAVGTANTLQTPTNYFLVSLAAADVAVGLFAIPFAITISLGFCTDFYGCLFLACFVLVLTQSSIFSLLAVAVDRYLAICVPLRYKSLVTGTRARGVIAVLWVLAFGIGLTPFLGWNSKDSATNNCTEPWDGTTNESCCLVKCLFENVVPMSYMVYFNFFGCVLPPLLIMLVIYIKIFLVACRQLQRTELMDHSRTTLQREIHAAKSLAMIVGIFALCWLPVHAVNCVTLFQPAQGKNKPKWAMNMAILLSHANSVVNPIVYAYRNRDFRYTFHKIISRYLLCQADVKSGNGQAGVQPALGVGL
The data set is described as follows: Displacement of [3H]-MRS-1754 from human adenosine receptor A2b expressed in HEK293 cell membranes after 90 mins by liquid scintillation counting method.
Settings: not given
On the technique in general: Displacement assays read how much labelled ligand stays bound in the presence of the test substance.
The compound `CCCn1c(=O)c2[nH]c(-c3cnn(C(C)C4CC(=O)N(c5cccc(C(F)(F)F)c5)C4)c3)nc2n(CCC)c1=O` (configuration not stated) registered a Ki of 4 nM.
The same measure, in the same setting: the same measure for `CCCn1c(=O)c2[nH]c(-c3cnn(CC4CC(=O)N(c5cccc(F)c5)C4)c3)nc2n(CC)c1=O` (configuration not stated): 24 nM; for `CCCn1c(=O)c2[nH]c(-c3cnn(CC4CC(=O)N(c5cccc(C(F)(F)F)c5)C4)c3)nc2n(CC)c1=O` (configuration not stated): 4.5 nM; for `CCCn1c(=O)c2[nH]c(-c3cnn(CC4CC(=O)N(c5ccc(F)cc5)C4)c3)nc2n(CCC)c1=O` (configuration not stated): 9.7 nM.
For `CCCn1c(=O)c2[nH]c(-c3cnn(CC4CC(=O)N(c5cccc(OC)c5)C4)c3)nc2n(CCC)c1=O` (configuration not stated), the affinity corresponds to a Ki of 21.6 nM.
On the same count and under the same terms, the same measure for `CCCn1c(=O)c2[nH]c(-c3cnn(CC4CCN(c5cccc(C(F)(F)F)c5)C4)c3)nc2n(CCC)c1=O` (configuration not stated): 3.6 nM.
The compound `CCCn1c(=O)c2[nH]c(-c3cnn(CC4CC(=O)N(c5cccc(OC(F)(F)F)c5)C4)c3)nc2n(CC)c1=O` (configuration not stated) yielded a Ki of 17.5 nM.

Another data set deals with T2, Adenosine receptor A1 (Homo sapiens) (UniProt P30542).
T2 sequence (whole entry): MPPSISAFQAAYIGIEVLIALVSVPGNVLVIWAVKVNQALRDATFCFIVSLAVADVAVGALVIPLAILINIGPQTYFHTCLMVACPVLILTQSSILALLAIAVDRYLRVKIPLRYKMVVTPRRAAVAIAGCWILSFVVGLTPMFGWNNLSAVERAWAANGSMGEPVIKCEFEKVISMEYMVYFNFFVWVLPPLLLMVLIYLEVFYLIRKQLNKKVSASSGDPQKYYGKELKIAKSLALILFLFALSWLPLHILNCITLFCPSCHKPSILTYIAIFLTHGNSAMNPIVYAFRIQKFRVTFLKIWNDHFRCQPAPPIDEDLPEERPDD
The data set is described as follows: Displacement of [3H]DPCPX from human adenosine receptor A1 expressed in HEK293 cell membranes at 0.1 uM after 90 mins by liquid scintillation counting method relative to control.
Settings: not given
Take `CCCn1c(=O)c2[nH]c(-c3cnn(C(C)C4CC(=O)N(c5cccc(C(F)(F)F)c5)C4)c3)nc2n(CCC)c1=O` (configuration not stated): the inhibition was determined as 17%.
Same read-out and setting: then `CCCn1c(=O)c2[nH]c(-c3cnn(CC4CC(=O)N(c5cccc(F)c5)C4)c3)nc2n(CC)c1=O` (configuration not stated), with 30%; and `CCCn1c(=O)c2[nH]c(-c3cnn(CC4CC(=O)N(c5cccc(C(F)(F)F)c5)C4)c3)nc2n(CC)c1=O` (configuration not stated), with 18%.
Still for that read-out and setting: then `CCCn1c(=O)c2[nH]c(-c3cnn(CC4CC(=O)N(c5ccc(F)cc5)C4)c3)nc2n(CCC)c1=O` (configuration not stated), with 31%; and `CCCn1c(=O)c2[nH]c(-c3cnn(CC4CC(=O)N(c5cccc(OC)c5)C4)c3)nc2n(CCC)c1=O` (configuration not stated), with 22%.
The same measure, in the same setting: then `CCCn1c(=O)c2[nH]c(-c3cnn(CC4CCN(c5cccc(C(F)(F)F)c5)C4)c3)nc2n(CCC)c1=O` (configuration not stated), with 38%; and `CCCn1c(=O)c2[nH]c(-c3cnn(CC4CC(=O)N(c5cccc(OC(F)(F)F)c5)C4)c3)nc2n(CC)c1=O` (configuration not stated), with 15%.

A further data set concerns the target Adenosine receptor A2a (Homo sapiens, UniProt P29274). As to the kind of experiment: Displacement of [3H]-ZM-241385 from human adenosine receptor A2a expressed in HEK293 cell membranes at 0.1 uM after 90 mins by liquid scintillation counting method relative to control.
Settings: not given
The compound `CCCn1c(=O)c2[nH]c(-c3cnn(C(C)C4CC(=O)N(c5cccc(C(F)(F)F)c5)C4)c3)nc2n(CCC)c1=O` (configuration not stated) yielded an inhibition of 15%.
On the same count and under the same terms, the same measure for `CCCn1c(=O)c2[nH]c(-c3cnn(CC4CC(=O)N(c5cccc(F)c5)C4)c3)nc2n(CC)c1=O` (configuration not stated): 37%; for `CCCn1c(=O)c2[nH]c(-c3cnn(CC4CC(=O)N(c5cccc(C(F)(F)F)c5)C4)c3)nc2n(CC)c1=O` (configuration not stated): 23%.
Same read-out and setting: the same measure for `CCCn1c(=O)c2[nH]c(-c3cnn(CC4CC(=O)N(c5ccc(F)cc5)C4)c3)nc2n(CCC)c1=O` (configuration not stated): 42%.
Same read-out and setting: then `CCCn1c(=O)c2[nH]c(-c3cnn(CC4CC(=O)N(c5cccc(OC)c5)C4)c3)nc2n(CCC)c1=O` (configuration not stated), with 46%; and `CCCn1c(=O)c2[nH]c(-c3cnn(CC4CCN(c5cccc(C(F)(F)F)c5)C4)c3)nc2n(CCC)c1=O` (configuration not stated), with 57%.
`CCCn1c(=O)c2[nH]c(-c3cnn(CC4CC(=O)N(c5cccc(OC(F)(F)F)c5)C4)c3)nc2n(CC)c1=O` (configuration not stated) showed an inhibition of 16%.

The next data set addresses T3, Adenosine receptor A3 (Homo sapiens) (UniProt P0DMS8).
T3 sequence (whole entry): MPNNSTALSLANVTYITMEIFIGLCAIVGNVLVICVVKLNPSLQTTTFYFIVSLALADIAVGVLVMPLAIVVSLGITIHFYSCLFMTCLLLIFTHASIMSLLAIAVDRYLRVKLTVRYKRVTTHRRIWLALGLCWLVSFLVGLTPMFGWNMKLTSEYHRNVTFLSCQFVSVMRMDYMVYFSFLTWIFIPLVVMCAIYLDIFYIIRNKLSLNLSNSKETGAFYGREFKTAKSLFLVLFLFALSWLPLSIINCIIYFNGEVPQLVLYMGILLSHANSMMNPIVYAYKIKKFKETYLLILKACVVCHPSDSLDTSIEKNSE
The data set is described as follows: Displacement of [3H]-HEM-ADO from human adenosine receptor A3 expressed in HEK293 cell membranes at 1 uM after 90 mins by liquid scintillation counting method relative to control.
Settings: not given
The compound `CCCn1c(=O)c2[nH]c(-c3cnn(C(C)C4CC(=O)N(c5cccc(C(F)(F)F)c5)C4)c3)nc2n(CCC)c1=O` (configuration not stated) displayed an inhibition of 18%.
Still for that read-out and setting: then `CCCn1c(=O)c2[nH]c(-c3cnn(CC4CC(=O)N(c5cccc(F)c5)C4)c3)nc2n(CC)c1=O` (configuration not stated), with 0%.
The same measure, in the same setting: the same measure for `CCCn1c(=O)c2[nH]c(-c3cnn(CC4CC(=O)N(c5cccc(C(F)(F)F)c5)C4)c3)nc2n(CC)c1=O` (configuration not stated): 0%; for `CCCn1c(=O)c2[nH]c(-c3cnn(CC4CC(=O)N(c5ccc(F)cc5)C4)c3)nc2n(CCC)c1=O` (configuration not stated): 14%.
Same read-out and setting: the same measure for `CCCn1c(=O)c2[nH]c(-c3cnn(CC4CC(=O)N(c5cccc(OC)c5)C4)c3)nc2n(CCC)c1=O` (configuration not stated): 11%; for `CCCn1c(=O)c2[nH]c(-c3cnn(CC4CCN(c5cccc(C(F)(F)F)c5)C4)c3)nc2n(CCC)c1=O` (configuration not stated): 2%; for `CCCn1c(=O)c2[nH]c(-c3cnn(CC4CC(=O)N(c5cccc(OC(F)(F)F)c5)C4)c3)nc2n(CC)c1=O` (configuration not stated): 3%.

A further data set has as its system Liver. The data set is described as follows: Metabolic stability in mouse liver microsomes assessed as metabolic rate per mg protein preincubated for 5 mins followed by NADPH addition measured up to 30 mins by LC-MS/MS analysis. It is filed as ADME, microsome. To be noted: 0.5 h. A general note: Liver microsomes are a subcellular fraction often used to study metabolism.
As to `CCCn1c(=O)c2[nH]c(-c3cnn(C(C)C4CC(=O)N(c5cccc(C(F)(F)F)c5)C4)c3)nc2n(CCC)c1=O` (configuration not stated), the Drug metabolism was found to be 0.59 nmol/min/mg.
Still for that read-out and setting: the same measure for `CCCn1c(=O)c2[nH]c(-c3cnn(CC4CC(=O)N(c5cccc(F)c5)C4)c3)nc2n(CC)c1=O` (configuration not stated): 0.29 nmol/min/mg; for `CCCn1c(=O)c2[nH]c(-c3cnn(CC4CC(=O)N(c5cccc(C(F)(F)F)c5)C4)c3)nc2n(CC)c1=O` (configuration not stated): 0.49 nmol/min/mg.
Still for that read-out and setting: the same measure for `CCCn1c(=O)c2[nH]c(-c3cnn(CC4CC(=O)N(c5ccc(F)cc5)C4)c3)nc2n(CCC)c1=O` (configuration not stated): 0.19 nmol/min/mg; for `CCCn1c(=O)c2[nH]c(-c3cnn(CC4CC(=O)N(c5cccc(OC)c5)C4)c3)nc2n(CCC)c1=O` (configuration not stated): 0.41 nmol/min/mg; for `CCCn1c(=O)c2[nH]c(-c3cnn(CC4CCN(c5cccc(C(F)(F)F)c5)C4)c3)nc2n(CCC)c1=O` (configuration not stated): 0 nmol/min/mg.
Still for that read-out and setting: the same measure for `CCCn1c(=O)c2[nH]c(-c3cnn(CC4CC(=O)N(c5cccc(OC(F)(F)F)c5)C4)c3)nc2n(CC)c1=O` (configuration not stated): 0.25 nmol/min/mg.

A further data set has as its system Liver. As to the kind of experiment: Metabolic stability in human liver microsomes assessed as metabolic rate per mg protein preincubated for 5 mins followed by NADPH addition measured up to 30 mins by LC-MS/MS analysis. The format is ADME, microsome. Conditions: 0.5 h.
For the compound `CCCn1c(=O)c2[nH]c(-c3cnn(C(C)C4CC(=O)N(c5cccc(C(F)(F)F)c5)C4)c3)nc2n(CCC)c1=O` (configuration not stated), the Drug metabolism was found to be 0.2 nmol/min/mg.
The same measure, in the same setting: then `CCCn1c(=O)c2[nH]c(-c3cnn(CC4CC(=O)N(c5cccc(F)c5)C4)c3)nc2n(CC)c1=O` (configuration not stated), with 0.06 nmol/min/mg; and `CCCn1c(=O)c2[nH]c(-c3cnn(CC4CC(=O)N(c5cccc(C(F)(F)F)c5)C4)c3)nc2n(CC)c1=O` (configuration not stated), with 0.12 nmol/min/mg; and `CCCn1c(=O)c2[nH]c(-c3cnn(CC4CC(=O)N(c5ccc(F)cc5)C4)c3)nc2n(CCC)c1=O` (configuration not stated), with 0.06 nmol/min/mg.
The same measure, in the same setting: the same measure for `CCCn1c(=O)c2[nH]c(-c3cnn(CC4CC(=O)N(c5cccc(OC)c5)C4)c3)nc2n(CCC)c1=O` (configuration not stated): 0.18 nmol/min/mg; for `CCCn1c(=O)c2[nH]c(-c3cnn(CC4CCN(c5cccc(C(F)(F)F)c5)C4)c3)nc2n(CCC)c1=O` (configuration not stated): 0.01 nmol/min/mg; for `CCCn1c(=O)c2[nH]c(-c3cnn(CC4CC(=O)N(c5cccc(OC(F)(F)F)c5)C4)c3)nc2n(CC)c1=O` (configuration not stated): 0.4 nmol/min/mg.
